Measurements from paper PMC4467794 (Cell, 2015).

Target: T1, ALAS2 (apoALAS2) (Homo sapiens, UniProt P22557)
T1 sequence (P22557 50-587): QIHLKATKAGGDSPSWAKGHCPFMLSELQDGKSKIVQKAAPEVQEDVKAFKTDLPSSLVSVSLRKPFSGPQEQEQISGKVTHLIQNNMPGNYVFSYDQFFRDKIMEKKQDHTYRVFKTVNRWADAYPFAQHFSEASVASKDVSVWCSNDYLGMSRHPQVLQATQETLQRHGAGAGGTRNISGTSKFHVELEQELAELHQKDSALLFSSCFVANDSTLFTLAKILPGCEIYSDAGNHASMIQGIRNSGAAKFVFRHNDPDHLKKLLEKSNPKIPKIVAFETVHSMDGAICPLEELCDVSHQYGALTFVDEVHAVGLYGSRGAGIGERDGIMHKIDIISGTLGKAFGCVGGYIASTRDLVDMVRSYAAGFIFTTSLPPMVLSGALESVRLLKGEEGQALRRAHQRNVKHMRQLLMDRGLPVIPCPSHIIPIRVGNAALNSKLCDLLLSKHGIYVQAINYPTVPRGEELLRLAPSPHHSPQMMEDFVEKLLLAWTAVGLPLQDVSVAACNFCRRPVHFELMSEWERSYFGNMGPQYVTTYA
Experiment: PLP reactivation of apoenzyme, NAD-coupled ALAS assay
Type: biochemical
Details: apoALAS2 5 µM, PLP 50 µM, pH 7.6, 30 °C, 5 mM MgCl2, 130 mM KCl, 0.75 mg/ml BSA; covalent

For Cc1ncc(COP(=O)(O)O)c(C=O)c1O [pyridoxal phosphate], the “PLP reactivation of apoenzyme, NAD-coupled ALAS assay” value was “apoALAS2 activation by PLP in vitro”.
